Test results as given in patent US6329523A, “Compounds having a plurality of nitrogenous substitutents” (ISIS Pharmaceuticals, Inc., priority 1999, dated 2001).
≈ marks a conversion by molar mass, not a printed value.

Legend:
Assay type in all cases: cell-based
Streptococcus pyogenes = assay: MIC / bacterial growth assay, Streptococcus pyogenes; conditions: for inhibition at 100 µM: read-out: inhibition in the S. pyogenes procedure
Protocol: S. pyogenes [American Type Culture Collection (ATCC) #14289] is used in this bacterial growth assay. To initiate the exponential phase of bacterial growth prior to the assay, a sample of bacteria is grown for 6 hours in Todd Hewitt Broth (Difco 0492-17-6) at 37° C. then re-inoculated into fresh media and grown overnight at 37° C. The bacterial cells are collected by centrifugation for 10 minutes at 3200 rpm, diluted and absorbance read at 595 nm. Bacteria diluted in 233 Todd-Hewitt Broth ([…]) are added to the compound mixtures (75 μL) for a total volume of 150 μL. The assays are performed in 96-well microplates with approximately 1×10^4 colony forming units (CFU) per well. The plates are incubated at 37° C. and growth monitored over a 24 hour period by measuring the optical density at 595 nm using a BioRad model 3550 UV microplate reader. The percentage of growth relative to a well containing no compound is determined. Ampicillin and tetracycline antibiotic controls are concurrently tested in each screening assay.
(§1) Compounds are assayed in duplicate at a single dose. Compounds which show inhibitory activity are re-tested in duplicate at multiple doses to determine minimum inhibitory concentration (MIC).

E. coli imp- = assay: MIC / bacterial growth assay, E. coli imp-; conditions: Escherichia coli
Protocol: The strain E. coli imp- obtained from Spencer Benson (Sampson, B. A., Misra, R. & Benson, S. A., Genetics, 1989, 122, 491-501, Identification and characterization of a new gene of Escherichia coli K-12 involved in outer membrane permeability) is used in this bacterial growth assay. To initiate the exponential phase of bacterial growth prior to the assay, a sample of bacteria is grown for 6 hours in Mueller Hinton II Broth (BBL 12322) at 37° C. then re-inoculated into fresh media and grown overnight at 37° C. The bacterial cells are collected by centrifugation for 10 minutes at 3200 rpm, diluted and absorbance read at 595 nm. Bacteria diluted in 2×Mueller Hinton II Broth (75 μL) are added to the compound mixtures (75μL) for a total volume of 150 μL. The assays are performed in 96-well microplates with approximately 1×10^4 colony forming units (CFU) per well. The plates are incubated at 37° C. and growth monitored over a 24 hour period by measuring the optical density at 595 nm using a BioRad model 3550 UV microplate reader. The percentage of growth relative to a well containing no compound is determined. Ampicillin and tetracycline antibiotic controls are concurrently tested in each screening assay.
as §1

C. albicans = assay: antifungal MIC assay, C. albicans; conditions: Candida albicans, 24 h; MIC ASSAYS table; unit inferred
Protocol: Yeast diluted in 2×YM Broth (75 μL) are added to the compound mixtures (75 μL) for a total volume of 150 μL. The assays are performed in 96-well microplates with approximately 1×10^4 cells per well. The plates are incubated at 25° C. and growth monitored at 48 hours by visual inspection of yeast growth. Amphotericin B anti-fungal control is concurrently tested in each screening assay.
Compounds are assayed in duplicate at multiple doses to determine minimum inhibitory concentration (MIC).

SMILES | MIC (Streptococcus pyogenes; 24 h, MIC ASSAYS table, first round or parent libraries, unit inferred, read-out: MIC S. pyrogenes) [µM] | MIC (E. coli imp-; 24 h, read-out: MIC E. coli) [µM] | MIC (C. albicans) [µM] | inhibition at 100 µM (Streptococcus pyogenes) [%] | inhibition at 100 µM (E. coli imp-; read-out: inhibition in the E. coli procedure) [%]
OCCCN(CCN(Cc1ccccc1)Cc1cccc(CN(Cc2ccccc2)Cc2ccccc2)n1)Cc1ccccc1 [Compound 9, 2-(N,N-dibenzylaminomethylene)-6-{[N1-[benzyl(methyl-1-yl)]-N2-(benzyl)-1-propanol-3-yl]-1,2-diaminoethane}pyridine] | 5 to 25 (≈ 2.99 to 15 µg/mL) | 5 to 25 (≈ 2.99 to 15 µg/mL) | 1 to 5 (≈ 0.599 to 2.99 µg/mL) |  | 
NC(=O)CN(Cc1cccc(C(F)(F)F)c1)Cc1cccc(CN(CCNCCCO)Cc2cccc(C(F)(F)F)c2)n1 [Example 137] |  |  |  | 95 | 87
N=C(N)NCc1cccc(CN(CCNCCCO)Cc2cccc(C(F)(F)F)c2)n1 [Example 142] |  |  |  | 95 | 
